Measured values taken from the supplement of paper PMC10307832.

Key:
Experiment in all cases: relative viability (nuclei count vs DMSO), 5 days (fraction); higher = more cells survive
BI-D1870 + Trametinib = compound: CC(C)CCN1c2nc(Nc3cc(F)c(O)c(F)c3)ncc2N(C)C(=O)C1C [BI-D1870] + CC(=O)Nc1cccc(-n2c(=O)n(C3CC3)c(=O)c3c(Nc4ccc(I)cc4F)n(C)c(=O)c(C)c32)c1 [Trametinib] (partner 0.02 µM)
Summary of the method: (§1)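 Values are medians from duplicate plates. Each reflects relative viability, defined as the nuclei count of treated wells over that of vehicle wells. Lung cancer cell lines in 1536-well plates were pin-tool dosed one day after seeding with one drug alone or with a fixed anchor-drug dose plus five library-drug doses (not always all listed) in √10 steps, then fixed, stained and imaged at 4× after 5 days.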

BI-D1870 + Alpelisib = compound: CC(C)CCN1c2nc(Nc3cc(F)c(O)c(F)c3)ncc2N(C)C(=O)C1C [BI-D1870] + Cc1nc(NC(=O)N2CCC[C@H]2C(N)=O)sc1-c1ccnc(C(C)(C)C(F)(F)F)c1 [Alpelisib] (partner 2 µM)
Summary of the method: as §1

BI-D1870 + Phenformin = compound: CC(C)CCN1c2nc(Nc3cc(F)c(O)c(F)c3)ncc2N(C)C(=O)C1C [BI-D1870] + N=C(N)NC(=N)NCCc1ccccc1 [Phenformin] (partner 250 µM)
Summary of the method: as §1

Zebularine + Vorinostat = compound: O=c1ncccn1[C@@H]1O[C@H](CO)[C@@H](O)[C@H]1O [Zebularine] + O=C(CCCCCCC(=O)Nc1ccccc1)NO [Vorinostat] (partner 1 µM)
Summary of the method: as §1

Cell Line	relative viability (BI-D1870 + Trametinib; first compound 0.04 µM)	relative viability (BI-D1870 + Trametinib; first compound 0.1265 µM)	relative viability (BI-D1870 + Trametinib; first compound 0.4 µM)	relative viability (BI-D1870 + Trametinib; first compound 1.265 µM)	relative viability (BI-D1870 + Trametinib; first compound 4 µM)	relative viability (BI-D1870 + Alpelisib; first compound 0.04 µM)	relative viability (BI-D1870 + Alpelisib; first compound 0.1265 µM)	relative viability (BI-D1870 + Alpelisib; first compound 0.4 µM)	relative viability (BI-D1870 + Alpelisib; first compound 1.265 µM)	relative viability (BI-D1870 + Alpelisib; first compound 4 µM)	relative viability (BI-D1870 + Phenformin; first compound 0.04 µM)	relative viability (BI-D1870 + Phenformin; first compound 0.1265 µM)	relative viability (BI-D1870 + Phenformin; first compound 0.4 µM)	relative viability (BI-D1870 + Phenformin; first compound 1.265 µM)	relative viability (BI-D1870 + Phenformin; first compound 4 µM)	relative viability (Zebularine + Vorinostat; first compound 1 µM)	relative viability (Zebularine + Vorinostat; first compound 3.162 µM)	relative viability (Zebularine + Vorinostat; first compound 10 µM)	relative viability (Zebularine + Vorinostat; first compound 31.62 µM)	relative viability (Zebularine + Vorinostat; first compound 100 µM)
LCLC-97TM1	0.214	0.181	0.174	0.221	0.146	0.254	0.218	0.219	0.276	0.188	0.458	0.472	0.396	0.417	0.453	0.529	0.253	0.33	0.157	0.152
LCLC-103H	0.692	0.616	0.653	0.7	0.63	0.96	0.937	0.864	1.1	0.874	0.376	0.301	0.316	0.36	0.324	0.812	0.697	0.706	0.77	0.75
LK-2	0.864	0.8	0.786	0.97	0.649	1.22	1.11	1.11	1.32	0.608	0.631	0.437	0.451	0.545	0.217	0.277	0.315	0.209	0.177	0.28
LOU-NH91	0.842	0.762	0.788	0.761	0.651	0.811	0.796	0.753	0.735	0.605	0.744	0.63	0.703	0.817	0.558	0.981	0.899	0.81	0.9	0.557
LU99A	0.513	0.436	0.519	0.511	0.533	0.621	0.492	0.482	0.565	0.489	1.05	0.804	0.799	0.634	0.72	0.536	0.513	0.414	0.379	0.174
LXF-289	0.755	0.608	0.71	0.738	0.612	1.12	0.983	1	1.02	0.899	0.561	0.493	0.491	0.529	0.451	0.853	0.809	0.635	0.667	0.254
NCI-H23	0.39	0.342	0.385	0.329	0.295	0.779	0.508	0.614	0.78	0.664	0.827	0.758	0.768	0.759	0.736	0.661	0.587	–	0.542	0.509
NCI-H322M	0.437	0.537	0.524	0.508	0.495	0.887	0.79	0.741	0.891	0.765	0.841	0.764	0.668	0.626	0.701	0.946	0.873	1.21	0.945	0.537
NCI-H358	0.147	0.117	0.136	0.153	0.119	0.964	0.745	0.852	0.663	0.415	0.405	0.289	0.343	0.326	0.218	0.837	0.696	0.327	0.358	0.223
NCI-H441	0.524	0.417	0.463	0.578	0.378	0.915	0.675	0.955	0.572	0.434	1.02	0.832	0.74	1.17	0.872	1.03	0.908	0.404	0.317	0.362
NCI-H460	0.133	0.117	0.126	0.105	0.0577	0.613	0.368	0.443	0.347	0.0382	0.541	0.48	0.503	0.447	0.0984	0.652	0.702	0.297	0.298	0.166
NCI-H520	0.645	0.627	0.683	0.612	0.302	0.903	0.76	0.85	0.953	0.764	0.514	0.596	0.584	0.537	0.429	0.752	0.685	0.462	0.45	0.242
NCI-H596	0.95	0.773	0.846	0.804	0.762	0.456	0.487	0.43	0.511	0.512	0.809	0.683	0.695	0.74	0.855	0.628	0.598	0.358	0.577	0.612
NCI-H647	0.575	0.45	0.533	0.462	0.335	1.1	0.985	1.16	1.07	0.896	0.659	0.466	0.62	0.513	0.324	0.481	0.586	0.165	0.165	0.12
NCI-H650	0.995	0.82	0.862	0.901	0.904	1.16	0.944	1.14	0.97	0.722	0.444	0.446	0.432	0.38	0.322	0.398	0.376	0.343	0.297	0.225
NCI-H661	0.607	0.499	0.598	0.589	0.472	0.516	0.692	0.427	0.599	0.65	0.27	0.28	0.281	0.289	0.269	0.9	0.829	0.673	0.936	0.824
